Series [1] concerns Alternaria solani. Nature of the series: In vivo preventive test on Alternaria solani (tomato). To be noted: 500 ppm of active ingredient, evaluated 7 days after inoculation. Summed up: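 Young tomato plants sprayed preventively with compound in DMF/alkylarylpolyglycolether emulsion diluted in water to the stated rate. Inoculation with aqueous Alternaria solani spore suspension one day after treatment.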

Series [2] deals with Leptosphaeria nodorum. Briefly: In vivo preventive test on Leptosphaeria nodorum (wheat). To be noted: 500 ppm of active ingredient, evaluated 7-9 days after inoculation. Here is the method: Solvent: 49 parts by weight of N,N-dimethylacetamide Emulsifier: 1 part by weight of alkylaryl polyglycol ether To produce a suitable preparation of active compound, 1 part by weight of active compound is mixed with the stated amounts of solvent and emulsifier, and the concentrate is diluted with water to the desired concentration. To test for preventive activity, young plants are sprayed with a preparation of active compound at the stated rate of application. One day after this treatment, the plants are inoculated with an aqueous spore suspension of Leptosphaeria nodorum.

The subject of series [3] is Pyrenophora teres. Briefly: In vivo preventive test on Pyrenophora teres (barley). To be noted: 500 ppm of active ingredient, evaluated 7-9 days after inoculation. Summed up:
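Compound formulated in N,N-dimethylformamide with alkylaryl polyglycol ether emulsifier and diluted in water, then sprayed on young barley plants at the stated application rate. Plants inoculated one day later with aqueous Pyrenophora teres spore suspension, testing preventive protection.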

A short description of series [4]: log P by HPLC on reversed-phase column (EEC Directive 79/831 Annex V.A8). The format is physicochemical. The protocol: In table 1, the log P values were determined in accordance with EEC Directive 79/831 Annex V.A8 by HPLC (High Performance Liquid Chromatography) on a reversed-phase column (C18), using the method described below: Temperature: 40° C.; […]
In series [5] the test system is Aspergillus parasiticus. Briefly: microbe, parasite or virus in culture. The format is cell-based.
For series [6], the system named is Sphaerotheca fuliginea. Nature of the series: In vivo preventive test on Sphaerotheca fuliginea (cucumber). Particulars: 500 ppm of active ingredient, evaluated 7 days after inoculation. Here is the method: Solvent: 49 parts by weight of N,N-dimethylformamide Emulsifier: 1 part by weight of Alkylarylpolyglycolether To produce a suitable preparation of active compound, 1 part by weight of active compound is mixed with the stated amounts of solvent and emulsifier, and the concentrate is diluted with water to the desired concentration. To test for preventive activity, young plants are sprayed with the preparation of active compound at the stated rate of application. One day after this treatment, the plants are inoculated with an aqueous spore suspension of Sphaerotheca fuliginea. Then the plants are placed in a greenhouse at approximately 23° C. and a relative atmospheric humidity of approximately 70%.

The subject of series [7] is Puccinia triticina. Briefly: In vivo preventive test on Puccinia triticina (wheat). Particulars: Table K, 500 ppm of active ingredient, evaluated 8 days after inoculation.
Series [8] concerns aflatoxines produced by Aspergillus parasiticus. Briefly: microbe, parasite or virus in culture. In kind it is cell-based.

Usually logP stands for a log measure of how a compound divides between an organic and an aqueous phase. Low values mean a more hydrophilic compound, high ones a more lipophilic compound. As to `CC(CCc1ccc(Cl)c(Cl)c1)NC(=O)c1c(C(F)F)nn(C)c1Cl` (racemic) [Example 131], the Efficacy is 95% in series [1], 80% in series [2] and 100% in series [3]. In series [4], this molecule yielded a log partition coefficient (logP) of 3.85.
As for `Cc1nn(C)c(F)c1C(=O)N(C(C)CCc1ccccc1C(F)(F)F)C1CC1` (stereo not shown) [E-12 from WO-2008/101976, N-cyclopropyl-5-fluoro-1,3-dimethyl-N-{4-[2-(trifluoromethyl)phenyl]butan-2-yl}-1H-pyrazole-4-carboxamide, reference compound], the Efficacy is reported as 10% in series [2] and “less than 10%” in series [2] (listed as example E-12 disclosed in patent application WO-2008/101976).
In the case of `Cn1nc(C(F)F)c(C(=O)N(CCOc2ccc(-c3ccccc3)cc2)C2CC2)c1F` [Example 29], the Efficacy was determined as 80% in series [1], 80% in series [2] and 100% in series [3]. Further, the logP in series [4] came out at 3.90.
In the case of `Cc1ccnc(OCC(C)NC(=O)c2c(C(F)F)nn(C)c2Cl)c1` (stereo not shown) [Example 37], the Efficacy was 80% in series [1], 90% in series [2] and 100% in series [3]. For the same molecule, the logP in series [4] came to 2.13.
`Cc1cccc(C)c1CCC(C)NC(=O)c1c(C(F)F)nn(C)c1Cl` (stereo not shown) [Example 153]: the “% Inhibition of fungal growth at 50 μM” value in series [5] turned out to be 99%. Moreover, the Efficacy in series [6] came to 100%; in series [7], 95%; in series [3], 100%. Besides, the “% Inhibition of Aflatoxin at 50 μM” value in series [8] was 100%. Moreover, the logP in series [4] was 3.61.
Turning to `Cc1cccc(C)c1CCC(C)NC(=O)c1c(C(F)F)nn(C)c1F` (stereo not shown) [Example 154], the “% Inhibition of fungal growth at 50 μM” value in series [5] is 100%. In addition, the Efficacy came to 100% in series [6], 70% in series [7], 100% in series [1] and 100% in series [3]. Further, the “% Inhibition of Aflatoxin at 50 μM” value in series [8] was found to be 100%. In series [4], the logP is listed as 3.41.
With `CC(CNC(=O)c1c(C(F)F)nn(C)c1F)Cc1c(F)cccc1F` (stereo not shown) [Example 157], the Efficacy in series [1] came to 80%; in series [2] it was 80%; in series [3] it was 100%. The same molecule gave a logP in series [4] of 3.02.
In the case of `CC(CCc1c(Cl)cccc1Cl)NC(=O)c1c(C(F)F)nn(C)c1F` (stereo not shown) [Example 163], in series [5], the “% Inhibition of fungal growth at 50 μM” value turned out to be 100%. In addition, the Efficacy came to 100% in series [6], 80% in series [7], 100% in series [1] and 100% in series [3]. In series [8], the “% Inhibition of Aflatoxin at 50 μM” value was 100%. For the same molecule, in series [4], the logP is listed as 3.59.
`CN(CCCc1cc(Cl)ccc1Cl)C(=S)c1c(C(F)F)nn(C)c1F` [Example 168]: the Efficacy is 90% in series [1], 90% in series [2] and 100% in series [3]. The molecule also had a lipophilicity (logP) in series [4] of 4.11.
For the molecule `Cn1nc(C(F)F)c(C(=O)N(C[Si](C)(C)Cc2ccccc2)C2CC2)c1Cl` [Example 287], the Efficacy is reported as 95% in series [1], 95% in series [2] and 100% in series [3]. In series [4], this molecule gave a logP of 4.20.
`Cn1nc(C(F)F)c(C(=S)N(C[Si](C)(C)Cc2ccc(Cl)cc2Cl)C2CC2)c1F` [Example 299]: the Efficacy was found to be 95% in series [1], 95% in series [2] and 100% in series [3]. Also, the logP in series [4] is on record as 5.57.
For the molecule `CCC1(CNC(=O)c2c(C(F)F)nn(C)c2Cl)CCCCC1` [Example 365], in series [2], the Efficacy stood at 90%. Further, the lipophilicity (logP) in series [4] was found to be 3.78.
Take `CC1CCCC(C)(C)C1CCC(C)N(C(=O)c1c(C(F)F)nn(C)c1Cl)C1CC1` (stereo not shown) [Example 368]: in series [5], the “% Inhibition of fungal growth at 50 μM” value stood at 93%. The values for the Efficacy in series [6], in series [1] and in series [3] were 93%, 80% and 95%, respectively. Also, the “% Inhibition of Aflatoxin at 50 μM” value in series [8] is 100%. Also, the log partition coefficient (logP) in series [4] was 6.07.

The record behind these values is patent US8999956B2, “N-[(het)arylalkyl)] pyrazole(thio)carboxamides and their heterosubstituted analogues” (Bayer Intellectual Property GmbH, priority 2010, dated 2015).
